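48-hour exposure; five concentrations; linearly interpolated endpoints. GI50 is the concentration that inhibits growth by half.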 Calls of active or inactive are those of the source. Cut-off read from the data, not from the text of the source: active = GI50 up to about 1.1 µM and inactive = higher.
Tests used:
Experiment in all cases: NCI anticancer screen, dose series, 48 h
M14 = system: M14
NCI-H460 = system: NCI-H460
SF-268 = system: SF-268
SN12C = system: SN12C
COLO 205 = system: COLO 205
SK-MEL-5 = system: SK-MEL-5
LOX IMVI = system: LOX IMVI
HL-60 = system: HL-60
SNB-75 = system: SNB-75
DMS-114 = system: DMS-114
RPMI-8226 = system: RPMI-8226
NCI-H226 = system: NCI-H226
ACHN = system: ACHN
RXF 393 = system: RXF 393
HT-29 = system: HT-29
CCRF-CEM = system: CCRF-CEM
T47D = system: T47D
DU-145 = system: DU-145
MDA-MB-435 = system: MDA-MB-435

SMILES | GI50 (M14) | GI50 (NCI-H460) | GI50 (SF-268) | GI50 (SN12C) | GI50 (COLO 205) | GI50 (SK-MEL-5) | GI50 (LOX IMVI) | GI50 (HL-60) | GI50 (SNB-75) | GI50 (DMS-114) | GI50 (RPMI-8226) | GI50 (NCI-H226) | GI50 (ACHN) | GI50 (RXF 393) | GI50 (HT-29) | GI50 (CCRF-CEM) | GI50 (T47D) | GI50 (DU-145) | GI50 (MDA-MB-435)
Cc1ccc(S(=O)OC2C3CC4CC(C3)CC2C4)cc1 (stereo unspecified) | > 100 µM (inactive) | > 100 µM (inactive) | > 100 µM (inactive) | > 100 µM (inactive) | > 100 µM (inactive) | > 100 µM (inactive) | > 100 µM (inactive) | > 100 µM (inactive) | > 100 µM (inactive) | > 100 µM (inactive) | > 100 µM (inactive) | > 100 µM (inactive) | > 100 µM (inactive) | > 100 µM (inactive) | > 100 µM (inactive) |  |  |  | 
CCCCN(CCCC)CC(C(=O)Nc1ccc([N+](=O)[O-])cc1[N+](=O)[O-])/C(C)=N\NC(=O)c1ccncc1 (stereo unspecified) | > 100 µM (inactive) | > 100 µM (inactive) | > 100 µM (inactive) | > 100 µM (inactive) | > 100 µM (inactive) | > 100 µM (inactive) | > 100 µM (inactive) | > 100 µM (inactive) | 76.6 µM (inactive) | > 100 µM (inactive) | > 100 µM (inactive) |  | > 100 µM (inactive) | > 100 µM (inactive) |  | > 100 µM (inactive) |  |  | 
Cc1cccc(C)c1NC(=O)/C(Cl)=C(/Cl)C(=O)O | 9.29 µM (inactive) | 30.8 µM (inactive) | 17.2 µM (inactive) | 18.7 µM (inactive) | 7.11 µM (inactive) | 19.9 µM (inactive) | 18.1 µM (inactive) | 2.63 µM (inactive) | 20.2 µM (inactive) | 21.3 µM (inactive) | 11 µM (inactive) | 16.4 µM (inactive) | 15.4 µM (inactive) | 18.8 µM (inactive) | 17.5 µM (inactive) | 2.95 µM (inactive) | 27.9 µM (inactive) | 26.5 µM (inactive) | 21.9 µM (inactive)
CN(C(=O)c1ccc(Cl)cc1)C(=S)N1CCN(c2ccccn2)CC1 | > 100 µM (inactive) | > 100 µM (inactive) | > 100 µM (inactive) | > 100 µM (inactive) | > 100 µM (inactive) | > 100 µM (inactive) | > 100 µM (inactive) | > 100 µM (inactive) | > 100 µM (inactive) | 69.8 µM (inactive) | > 100 µM (inactive) | 37.2 µM (inactive) | > 100 µM (inactive) | > 100 µM (inactive) | > 100 µM (inactive) | > 100 µM (inactive) |  |  | 
C=C1C(=O)OC2CC3(C)C=CC(=O)C(=C)C3CC12 (stereo unspecified) | 1.46 µM (inactive) | 2.59 µM (inactive) | 2.59 µM (inactive) | 1.69 µM (inactive) | 1.63 µM (inactive) | 1.72 µM (inactive) | 0.516 µM (active) | 0.769 µM (active) | 3.73 µM (inactive) | 3.61 µM (inactive) | 0.589 µM (active) | 12.1 µM (inactive) | 1.72 µM (inactive) | 2.03 µM (inactive) | 1.65 µM (inactive) | 0.317 µM (active) |  |  | 
CN(C)c1ccc(C(=C(c2ccc(N(C)C)cc2)c2ccc(N(C)C)cc2)c2ccc(N(C)C)cc2)cc1 | 6.62 µM (inactive) | 15.8 µM (inactive) | 21.5 µM (inactive) | 16.2 µM (inactive) | 0.568 µM (active) | 16.3 µM (inactive) | 13.5 µM (inactive) | 5.36 µM (inactive) | 13.5 µM (inactive) | 15.4 µM (inactive) | 7 µM (inactive) | 19.8 µM (inactive) | 11.5 µM (inactive) | 11.7 µM (inactive) | 13.8 µM (inactive) | 16.6 µM (inactive) |  |  | 
CC(C)(C)C(C#N)(C#N)c1ccc(C(C#N)(C#N)C(C)(C)C)nn1 | > 100 µM (inactive) | > 100 µM (inactive) | 86.7 µM (inactive) | > 100 µM (inactive) | > 100 µM (inactive) | > 100 µM (inactive) | > 100 µM (inactive) | > 100 µM (inactive) | 23.6 µM (inactive) | > 100 µM (inactive) | > 100 µM (inactive) |  | 82 µM (inactive) | 43.3 µM (inactive) | > 100 µM (inactive) | > 100 µM (inactive) |  |  | 
COC(=O)C1=Cc2c(cc(OC)c(OC)c2OC)[C@H](c2ccc(OC)c(OC)c2OC)C1C(=O)OC (stereo partly specified) | > 100 µM (inactive) | > 100 µM (inactive) | > 100 µM (inactive) | > 100 µM (inactive) | 55.7 µM (inactive) | > 100 µM (inactive) | > 100 µM (inactive) | 54.6 µM (inactive) | > 100 µM (inactive) | 61.7 µM (inactive) | 89.5 µM (inactive) | > 100 µM (inactive) | > 100 µM (inactive) | > 100 µM (inactive) | 36.1 µM (inactive) | > 100 µM (inactive) |  |  | 
C[n+]1c2n(c3nc(N)[nH]c(=O)c31)C1OC(C2)C(O)C1O (stereo unspecified) | > 100 µM (inactive) |  | > 100 µM (inactive) | > 100 µM (inactive) | > 100 µM (inactive) | > 100 µM (inactive) | > 100 µM (inactive) | > 100 µM (inactive) | > 100 µM (inactive) | > 100 µM (inactive) |  | > 100 µM (inactive) | > 100 µM (inactive) | > 100 µM (inactive) | > 100 µM (inactive) | > 100 µM (inactive) |  |  | 
CN(C)c1ccc(C(=C2C=CC(=[N+](C)C)C=C2)c2ccc(N(C)C)cc2)cc1 [GENTIAN VIOLET] | 0.163 µM (active) | 0.0574 µM (active) | 0.133 µM (active) | 0.21 µM (active) | 0.189 µM (active) | 0.0809 µM (active) | 0.0379 µM (active) | 0.04 µM (active) | 0.182 µM (active) | 0.13 µM (active) | 0.0237 µM (active) | 0.179 µM (active) | 0.175 µM (active) | 0.201 µM (active) |  | 0.102 µM (active) |  |  | 
COc1cccc(/C(C=O)=C(\Cl)c2ccc(OC)c(OC)c2)c1 | 17.6 µM (inactive) | 13.3 µM (inactive) | 11.7 µM (inactive) | 14.7 µM (inactive) | 14.5 µM (inactive) | 12.7 µM (inactive) | 15 µM (inactive) | 3.97 µM (inactive) | 5.04 µM (inactive) | 15.1 µM (inactive) | 11.5 µM (inactive) | 14 µM (inactive) | 13.6 µM (inactive) | 12.3 µM (inactive) | 14.4 µM (inactive) | 7.74 µM (inactive) |  |  | 
COc1ccc2c(c1OC)C(=O)c1cnccc1C2=O | > 100 µM (inactive) | > 100 µM (inactive) |  | > 100 µM (inactive) | > 100 µM (inactive) | > 100 µM (inactive) | > 100 µM (inactive) | > 100 µM (inactive) | > 100 µM (inactive) | > 100 µM (inactive) | > 100 µM (inactive) | > 100 µM (inactive) | > 100 µM (inactive) | 24.9 µM (inactive) | > 100 µM (inactive) | > 100 µM (inactive) |  |  | 
CCOP(=O)(OCC)C(C(=O)OC)C(=O)C(=O)Nc1cccc([N+](=O)[O-])c1 (stereo unspecified) | > 100 µM (inactive) | > 100 µM (inactive) | > 100 µM (inactive) | > 100 µM (inactive) | > 100 µM (inactive) | > 100 µM (inactive) | > 100 µM (inactive) | > 100 µM (inactive) | > 100 µM (inactive) | > 100 µM (inactive) |  | > 100 µM (inactive) | > 100 µM (inactive) | > 100 µM (inactive) | > 100 µM (inactive) | > 100 µM (inactive) |  |  | 
Cc1c(Cl)ccc2c1NC(=O)C2(O)CC(=O)c1ccc2ccccc2c1 (stereo unspecified) | 86.1 µM (inactive) | 67.1 µM (inactive) | 32.1 µM (inactive) | 76.7 µM (inactive) | 85.3 µM (inactive) | > 10 µM (inactive) | 44.7 µM (inactive) |  | 14.2 µM (inactive) | 21.1 µM (inactive) | 19.1 µM (inactive) | 24.4 µM (inactive) | 58.9 µM (inactive) | 16 µM (inactive) | 39.6 µM (inactive) | 29 µM (inactive) |  |  | 
CC1(C)OCN(c2ccc(S(N)(=O)=O)cc2)Cn2c1nc1ccccc12 | > 100 µM (inactive) | > 100 µM (inactive) | > 100 µM (inactive) | > 100 µM (inactive) | > 100 µM (inactive) |  | > 100 µM (inactive) | > 100 µM (inactive) | > 100 µM (inactive) | > 100 µM (inactive) | > 100 µM (inactive) | > 100 µM (inactive) | > 100 µM (inactive) | > 100 µM (inactive) | > 100 µM (inactive) | > 100 µM (inactive) |  |  | 
CN/N=C(\C(=O)Nc1ccc([N+](=O)[O-])cc1[N+](=O)[O-])C1NC(=O)NC1=O (stereo unspecified) | > 100 µM (inactive) | > 100 µM (inactive) | > 100 µM (inactive) | > 100 µM (inactive) | > 100 µM (inactive) | > 100 µM (inactive) | 38.1 µM (inactive) | > 100 µM (inactive) | > 100 µM (inactive) | > 100 µM (inactive) | > 100 µM (inactive) | > 100 µM (inactive) | > 100 µM (inactive) | > 100 µM (inactive) | 80.5 µM (inactive) | > 100 µM (inactive) |  |  | 
COC(=O)C1C(/C=C/c2ccoc2)ON2CCC[C@@H]12 (stereo partly specified) | > 100 µM (inactive) | > 100 µM (inactive) | > 100 µM (inactive) | > 100 µM (inactive) | > 100 µM (inactive) |  | > 100 µM (inactive) | > 100 µM (inactive) | 87.5 µM (inactive) | > 100 µM (inactive) |  | > 100 µM (inactive) | 67.8 µM (inactive) | 47.8 µM (inactive) | > 100 µM (inactive) |  |  |  | 
